# Target: FASN enzyme (Homo sapiens, UniProt P49327)
# Assay: Enzymatic Assay for FASN Inhibitors
# Format: biochemical
# Details: not given
# Method: Assays were performed in a 384-well black plate to measure the inhibition of FASN activities by individual compounds herein disclosed. An aliquot of 250 nL of compound was incubated with 10 μL of 40 nM FASN enzyme in assay buffer (50 mM HEPES pH=7.3, 0.5 mM EDTA, 1 mM Ascorbate, 100 mM NaCl and 0.04% TritonX-100) in each well at 25° C. for 60 minutes. After the plate was centrifuged briefly, 10 μL of substrate mix (20 μM Acetyl-CoA, 60 μM Malonyl-CoA, and 100 μM NADPH in assay buffer) was added to each well. The reaction was maintained at 25° C. for 90 minutes. The reaction was then quenched by adding 10 μL of 90 μM 7-Diethylamino-3-(4′-Maleimidylpheynyl)-4-Methylcoumarin in 50/50 Ethanol/H2O solution. The assay plate was incubated at 25° C. for 15 minutes, and read on a plate reader with excitation and emission wavelength at 360 nm and 530 nm, respectively. The IC50 of a given compound was calculated by fitting the dose response curve with a four parameter logistic equation.
# Sequence of FASN enzyme (P49327 whole entry): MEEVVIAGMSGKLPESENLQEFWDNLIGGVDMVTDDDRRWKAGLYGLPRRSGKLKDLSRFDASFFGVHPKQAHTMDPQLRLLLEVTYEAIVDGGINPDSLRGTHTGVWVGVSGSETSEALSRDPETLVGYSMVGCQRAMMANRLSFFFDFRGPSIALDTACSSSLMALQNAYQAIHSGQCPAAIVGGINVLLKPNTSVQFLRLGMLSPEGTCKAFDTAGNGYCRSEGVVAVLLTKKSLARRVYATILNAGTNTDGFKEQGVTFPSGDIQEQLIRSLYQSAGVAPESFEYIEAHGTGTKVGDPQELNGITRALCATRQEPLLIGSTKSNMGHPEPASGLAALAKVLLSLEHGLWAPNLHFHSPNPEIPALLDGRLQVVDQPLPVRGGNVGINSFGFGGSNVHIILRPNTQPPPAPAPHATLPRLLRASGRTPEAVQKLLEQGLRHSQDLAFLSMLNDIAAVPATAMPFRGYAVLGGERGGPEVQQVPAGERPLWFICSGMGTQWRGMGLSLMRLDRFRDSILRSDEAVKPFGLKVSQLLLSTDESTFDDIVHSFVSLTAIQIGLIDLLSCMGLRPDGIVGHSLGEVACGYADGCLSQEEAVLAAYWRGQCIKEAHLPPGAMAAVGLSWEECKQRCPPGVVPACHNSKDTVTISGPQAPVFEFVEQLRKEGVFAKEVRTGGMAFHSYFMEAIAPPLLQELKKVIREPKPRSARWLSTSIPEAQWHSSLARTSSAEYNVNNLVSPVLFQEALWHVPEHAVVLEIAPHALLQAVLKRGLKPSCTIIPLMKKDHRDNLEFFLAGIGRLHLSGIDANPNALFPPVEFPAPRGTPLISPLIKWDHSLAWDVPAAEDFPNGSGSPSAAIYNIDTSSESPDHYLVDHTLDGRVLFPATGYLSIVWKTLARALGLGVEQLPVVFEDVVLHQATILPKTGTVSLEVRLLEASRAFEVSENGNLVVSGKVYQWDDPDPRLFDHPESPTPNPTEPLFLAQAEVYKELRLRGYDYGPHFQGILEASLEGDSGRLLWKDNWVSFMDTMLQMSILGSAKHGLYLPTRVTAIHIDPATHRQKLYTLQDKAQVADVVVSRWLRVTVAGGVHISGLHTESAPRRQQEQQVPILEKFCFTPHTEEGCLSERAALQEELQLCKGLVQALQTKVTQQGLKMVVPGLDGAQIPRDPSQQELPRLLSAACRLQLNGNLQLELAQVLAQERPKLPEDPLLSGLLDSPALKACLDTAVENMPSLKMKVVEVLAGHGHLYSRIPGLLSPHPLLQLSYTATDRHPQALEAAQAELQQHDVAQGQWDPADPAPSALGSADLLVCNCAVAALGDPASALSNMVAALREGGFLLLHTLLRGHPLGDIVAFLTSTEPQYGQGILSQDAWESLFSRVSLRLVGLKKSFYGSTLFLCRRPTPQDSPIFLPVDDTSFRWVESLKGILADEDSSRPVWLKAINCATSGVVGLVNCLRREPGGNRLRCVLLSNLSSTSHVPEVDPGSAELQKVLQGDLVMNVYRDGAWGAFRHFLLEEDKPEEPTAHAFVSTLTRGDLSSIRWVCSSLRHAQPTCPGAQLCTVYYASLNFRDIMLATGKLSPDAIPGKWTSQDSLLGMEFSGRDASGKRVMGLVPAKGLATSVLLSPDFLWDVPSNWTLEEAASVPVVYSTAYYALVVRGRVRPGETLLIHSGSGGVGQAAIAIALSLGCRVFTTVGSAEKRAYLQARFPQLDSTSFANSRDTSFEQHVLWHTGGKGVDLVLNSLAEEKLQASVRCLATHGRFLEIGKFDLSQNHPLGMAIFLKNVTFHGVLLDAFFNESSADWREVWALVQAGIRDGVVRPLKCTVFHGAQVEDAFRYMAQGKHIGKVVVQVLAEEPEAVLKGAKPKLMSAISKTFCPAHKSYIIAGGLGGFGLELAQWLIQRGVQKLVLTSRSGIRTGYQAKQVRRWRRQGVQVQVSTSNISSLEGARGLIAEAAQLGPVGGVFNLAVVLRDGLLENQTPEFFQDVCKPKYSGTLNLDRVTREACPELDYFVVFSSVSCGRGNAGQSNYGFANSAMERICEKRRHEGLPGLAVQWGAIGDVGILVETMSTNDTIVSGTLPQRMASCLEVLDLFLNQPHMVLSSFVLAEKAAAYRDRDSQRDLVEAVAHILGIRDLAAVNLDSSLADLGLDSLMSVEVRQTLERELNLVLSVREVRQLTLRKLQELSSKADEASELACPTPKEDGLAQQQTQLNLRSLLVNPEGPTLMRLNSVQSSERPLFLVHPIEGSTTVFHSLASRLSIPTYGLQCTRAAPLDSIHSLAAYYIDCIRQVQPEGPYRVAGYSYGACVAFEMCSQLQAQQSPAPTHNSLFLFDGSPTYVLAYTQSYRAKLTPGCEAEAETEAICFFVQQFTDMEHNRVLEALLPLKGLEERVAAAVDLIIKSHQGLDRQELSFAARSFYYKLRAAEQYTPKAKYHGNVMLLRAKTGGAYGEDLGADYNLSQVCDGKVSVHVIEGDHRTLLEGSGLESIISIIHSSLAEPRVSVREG
row,IC50,SMILES
1,< 0.5 µM,"C[C@@H]1CN(C(=O)C2(O)CC2)CCN1C(=O)c1ccc(-c2ccc3c(c2)ncn3C)cc1 [1-[(3R)-3-methyl-4-[4-(1-methyl-1H-1,3-benzodiazol-5-yl)benzoyl]piperazine-1-carbonyl]cyclopropan-1-ol]"
2,< 0.5 µM,"C[C@@H]1CN(C(=O)C2(O)CC2)CCN1C(=O)c1ccc(-c2nc3ccc(F)cc3o2)cc1 [1-[(3R)-4-[4-(6-fluoro-1,3-benzoxazol-2-yl)benzoyl]-3-methylpiperazine-1-carbonyl]cyclopropan-1-ol]"
3,< 0.5 µM,"C[C@H]1CN(C(=O)C2(N)CC2)CCN1C(=O)c1ccc(-c2ccc3c(c2)ncn3C)cc1 [1-[(3S)-3-methyl-4-[4-(1-methyl-1H-1,3-benzodiazol-5-yl)benzoyl]piperazine-1-carbonyl]cyclopropan-1-amine]"
4,< 0.5 µM,C[C@H]1CN(C(=O)C2(O)CC2)CCN1C(=O)c1ccc(-c2ccc(Cl)cc2F)cc1 [1-[(3S)-4-[4-(4-chloro-2-fluorophenyl)benzoyl]-3-methylpiperazine-1-carbonyl]cyclopropan-1-ol]
5,< 0.5 µM,"C[C@H]1CN(C(=O)C2(O)CC2)CCN1C(=O)c1ccc(-c2nc3ccc(F)cc3o2)cc1 [1-[(3S)-4-[4-(6-fluoro-1,3-benzoxazol-2-yl)benzoyl]-3-methylpiperazine-1-carbonyl]cyclopropan-1-ol]"
6,< 0.5 µM,"O=C(c1ccc(-c2ccc3cc(F)ccc3n2)c(F)c1F)N1CCN(C(=O)C2(O)CC2)CC1 [1-[(4-{[2,3-difluoro-4-(6-fluoroquinolin-2-yl)phenyl]carbonyl}piperazin-1-yl)carbonyl]cyclopropan-1-ol]"
7,< 0.5 µM,"COc1ccc2nc(-c3ccc(C(=O)N4CCN(C(=O)C5(O)CC5)CC4)c(F)c3F)ccc2c1 [1-[(4-{[2,3-difluoro-4-(6-methoxyquinolin-2-yl)phenyl]carbonyl}piperazin-1-yl)carbonyl]cyclopropan-1-ol]"
8,< 0.5 µM,O=C(c1ccc(-c2ccc3cc(F)ccc3n2)cc1F)N1CCN(C(=O)C2(O)CC2)CC1 [1-[(4-{[2-fluoro-4-(6-fluoroquinolin-2-yl)phenyl]carbonyl}piperazin-1-yl)carbonyl]cyclopropan-1-ol]
9,< 0.5 µM,O=C(c1ccc(-c2ccc3ncccc3c2)c(F)c1)N1CCN(C(=O)C2(O)CC2)CC1 [1-[(4-{[3-fluoro-4-(quinolin-6-yl)phenyl]carbonyl}piperazin-1-yl)carbonyl]cyclopropan-1-ol]
10,< 0.5 µM,"O=C(c1ccc(-c2cccc3ocnc23)cc1)N1CCN(C(=O)C2(O)CC2)CC1 [1-[(4-{[4-(1,3-benzoxazol-4-yl)phenyl]carbonyl}piperazin-1-yl)carbonyl]cyclopropan-1-ol]"
11,< 0.5 µM,Cn1ncc2cc(-c3ccc(C(=O)N4CCN(C(=O)C5(O)CC5)CC4)cc3)ccc21 [1-[(4-{[4-(1-methyl-1H-indazol-5-yl)phenyl]carbonyl}piperazin-1-yl)carbonyl]cyclopropan-1-ol]
12,< 0.5 µM,Cn1ccc2cc(-c3ccc(C(=O)N4CCN(C(=O)C5(O)CC5)CC4)cc3)ccc21 [1-[(4-{[4-(1-methyl-1H-indol-5-yl)phenyl]carbonyl}piperazin-1-yl)carbonyl]cyclopropan-1-ol]
13,< 0.5 µM,O=C(c1ccc(-c2cc3ccccc3[nH]2)cc1)N1CCN(C(=O)C2(O)CC2)CC1 [1-[(4-{[4-(1H-indol-2-yl)phenyl]carbonyl}piperazin-1-yl)carbonyl]cyclopropan-1-ol]
14,< 0.5 µM,"O=C(c1ccc(-c2cccc(Cl)c2Cl)cc1)N1CCN(C(=O)C2(O)CC2)CC1 [1-[(4-{[4-(2,3-dichlorophenyl)phenyl]carbonyl}piperazin-1-yl)carbonyl]cyclopropan-1-ol]"
15,< 0.5 µM,"O=C(c1ccc(-c2cc(Cl)ccc2Cl)cc1)N1CCN(C(=O)C2(O)CC2)CC1 [1-[(4-{[4-(2,5-dichlorophenyl)phenyl]carbonyl}piperazin-1-yl)carbonyl]cyclopropan-1-ol]"
16,< 0.5 µM,O=C(c1ccc(-c2ccc(F)cc2Cl)cc1)N1CCN(C(=O)C2(O)CC2)CC1 [1-[(4-{[4-(2-chloro-4-fluorophenyl)phenyl]carbonyl}piperazin-1-yl)carbonyl]cyclopropan-1-ol]

# Same assay, conditions: FASN enzymatic assay; Table 2-2
row,IC50,SMILES
1,0.5 to 5 µM,"O=C(c1ccc2nc(-c3ccc(F)cc3)sc2c1)N1CCN(C(=O)C2(O)CC2)CC1 [1-[(4-{[2-(4-fluorophenyl)-1,3-benzothiazol-6-yl]carbonyl}piperazin-1-yl)carbonyl]cyclopropan-1-ol]"
2,0.5 to 5 µM,COc1cc(-c2cnc3ccccc3c2)ccc1C(=O)N1CCN(C(=O)C2(O)CC2)CC1 [1-[(4-{[2-methoxy-4-(quinolin-3-yl)phenyl]carbonyl}piperazin-1-yl)carbonyl]cyclopropan-1-ol]
3,0.5 to 5 µM,COc1cc(-c2ccc3ncccc3c2)ccc1C(=O)N1CCN(C(=O)C2(O)CC2)CC1 [1-[(4-{[2-methoxy-4-(quinolin-6-yl)phenyl]carbonyl}piperazin-1-yl)carbonyl]cyclopropan-1-ol]
4,0.5 to 5 µM,COc1cc(C(=O)N2CCN(C(=O)C3(O)CC3)CC2)ccc1-c1ccc2ncccc2c1 [1-[(4-{[3-methoxy-4-(quinolin-6-yl)phenyl]carbonyl}piperazin-1-yl)carbonyl]cyclopropan-1-ol]
5,0.5 to 5 µM,"COc1cc(-c2ccc3scnc3c2)ccc1C(=O)N1CCN(C(=O)C2(O)CC2)CC1 [1-[(4-{[4-(1,3-benzothiazol-5-yl)-2-methoxyphenyl]carbonyl}piperazin-1-yl)carbonyl]cyclopropan-1-ol]"
6,0.5 to 5 µM,"Cn1c(-c2ccc(C(=O)N3CCN(C(=O)C4(O)CC4)CC3)cc2)nc2ccccc21 [1-[(4-{[4-(1-methyl-1H-1,3-benzodiazol-2-yl)phenyl]carbonyl}piperazin-1-yl)carbonyl]cyclopropan-1-ol]"
7,0.5 to 5 µM,"O=C(c1ccc(-c2ccc3nonc3c2)cc1)N1CCN(C(=O)C2(O)CC2)CC1 [1-[(4-{[4-(2,1,3-benzoxadiazol-5-yl)phenyl]carbonyl}piperazin-1-yl)carbonyl]cyclopropan-1-ol]"
8,0.5 to 5 µM,COc1cccc(-c2ccc(C(=O)N3CCN(C(=O)C4(O)CC4)CC3)cc2)c1F [1-[(4-{[4-(2-fluoro-3-methoxyphenyl)phenyl]carbonyl}piperazin-1-yl)carbonyl]cyclopropan-1-ol]
9,0.5 to 5 µM,Cc1cccc(-c2ccc(C(=O)N3CCN(C(=O)C4(O)CC4)CC3)cc2)c1F [1-[(4-{[4-(2-fluoro-3-methylphenyl)phenyl]carbonyl}piperazin-1-yl)carbonyl]cyclopropan-1-ol]
10,0.5 to 5 µM,COc1ccc(-c2ccc(C(=O)N3CCN(C(=O)C4(O)CC4)CC3)cc2)c(F)c1 [1-[(4-{[4-(2-fluoro-4-methoxyphenyl)phenyl]carbonyl}piperazin-1-yl)carbonyl]cyclopropan-1-ol]

# Same assay, conditions: FASN enzymatic assay; Table 2-3
row,IC50,SMILES
1,≥ 5 µM,"Cc1nc(-c2ccc3scnc3c2)sc1C(=O)N1CCN(C(=O)C2(O)CC2)CC1 [1-[(4-{[2-(1,3-benzothiazol-5-yl)-4-methyl-1,3-thiazol-5-yl]carbonyl}piperazin-1-yl)carbonyl]cyclopropan-1-ol]"
2,≥ 5 µM,"O=C(c1ccc(-c2cnc3cccnc3c2)cc1)N1CCN(C(=O)C2(O)CC2)CC1 [1-[(4-{[4-(1,5-naphthyridin-3-yl)phenyl]carbonyl}piperazin-1-yl)carbonyl]cyclopropan-1-ol]"
3,≥ 5 µM,Cn1ncc2cccc(-c3ccc(C(=O)N4CCN(C(=O)C5(O)CC5)CC4)cc3)c21 [1-[(4-{[4-(1-methyl-1H-indazol-7-yl)phenyl]carbonyl}piperazin-1-yl)carbonyl]cyclopropan-1-ol]
4,≥ 5 µM,"O=C(c1ccc(-c2cccc(F)c2F)cc1)N1CCN(C(=O)C2(O)CC2)CC1 [1-[(4-{[4-(2,3-difluorophenyl)phenyl]carbonyl}piperazin-1-yl)carbonyl]cyclopropan-1-ol]"
5,≥ 5 µM,"COc1c(Cl)ccc(-c2ccc(C(=O)N3CCN(C(=O)C4(O)CC4)CC3)cc2)c1Cl [1-[(4-{[4-(2,4-dichloro-3-methoxyphenyl)phenyl]carbonyl}piperazin-1-yl)carbonyl]cyclopropan-1-ol]"
6,≥ 5 µM,"O=C(c1ccc(-c2cc(F)ccc2F)cc1)N1CCN(C(=O)C2(O)CC2)CC1 [1-[(4-{[4-(2,5-difluorophenyl)phenyl]carbonyl}piperazin-1-yl)carbonyl]cyclopropan-1-ol]"
7,≥ 5 µM,"COc1ccc(-c2ccc(C(=O)N3CCN(C(=O)C4(O)CC4)CC3)cc2)c(OC)n1 [1-[(4-{[4-(2,6-dimethoxypyridin-3-yl)phenyl]carbonyl}piperazin-1-yl)carbonyl]cyclopropan-1-ol]"
8,≥ 5 µM,COc1ccc(-c2ccc(C(=O)N3CCN(C(=O)C4(O)CC4)CC3)cc2)c(Cl)c1 [1-[(4-{[4-(2-chloro-4-methoxyphenyl)phenyl]carbonyl}piperazin-1-yl)carbonyl]cyclopropan-1-ol]
9,≥ 5 µM,O=C(c1ccc(-c2cc(F)ccc2Cl)cc1)N1CCN(C(=O)C2(O)CC2)CC1 [1-[(4-{[4-(2-chloro-5-fluorophenyl)phenyl]carbonyl}piperazin-1-yl)carbonyl]cyclopropan-1-ol]
10,≥ 5 µM,Cc1ccc(-c2ccc(C(=O)N3CCN(C(=O)C4(O)CC4)CC3)cc2)c(F)c1 [1-[(4-{[4-(2-fluoro-4-methylphenyl)phenyl]carbonyl}piperazin-1-yl)carbonyl]cyclopropan-1-ol]
11,≥ 5 µM,COc1ccc(F)c(-c2ccc(C(=O)N3CCN(C(=O)C4(O)CC4)CC3)cc2)c1 [1-[(4-{[4-(2-fluoro-5-methoxyphenyl)phenyl]carbonyl}piperazin-1-yl)carbonyl]cyclopropan-1-ol]

# From patent US10457655B2, “Compounds and compositions for inhibition of FASN” (FORMA Therapeutics, Inc., priority 2013, dated 2019)
